Test results from patent US20230332232A1, “COMPOSITIONS AND METHODS FOR DIAGNOSING AND TREATING A DYSTONIA” (Duke University, priority 2020, published 2023).

System: DYT1 knockin (Tor1a^delGAG/+) murine embryonic fibroblasts (MEFs)
Assay: Untargeted LC/MS/MS proteomics of EVs from DYT1 MEFs exposed 24 hours to drug, compared with untreated DYT1 (Het) MEFs
Assay type: cell-based, mouse
Procedure: Methods for isolation and purification of exosomes and extracellular vesicles (EV) were extensively reviewed. Experiments were performed to arrive at a robust and reproducible protocol. The protocol used herein is that set forth in Théry et al, 2006, which is incorporated by reference for it teaching of this protocol. This protocol involves depleting serum-derived EVs from cell culture media by overnight ultracentrifugation and exchanging media for 1% FBS EV-depleted media. Media is then collected from cells following a 24-hour conditioning period and EVs are isolated by 18-hour ultracentrifugation at 100,000 g (FIG. 1A).
EVs were isolated from media of cultured murine embryonic fibroblasts (MEFs) prepared in-house according to protocols described by Xu 2005 from DYT1 knockin mice (Tor1a^delGAG/+) (Goodchild R E, et al. (2005) Neuron. 48:923-932) and littermate wild-type (WT) controls. The cultured MEFs from the DYT1 mice were exposed for 24 hours to Ritonavir (RTV) while the MEFs from WT mice were exposed to vehicle, ISRIB, or Salubrinal (SAL). The EVs isolated from these WT cells and DYT1 were characterized by untargeted proteomics and RNA-seq to identify differentially expressed proteins and RNAs as candidate biomarkers. Experimenter and Proteomics core staff were blinded to genotype of cell cultures throughout preparation and analysis phases.
Samples were first normalized to 20 μg and spiked with undigested casein at a total of 40 fmol/μg, 80 fmol/μg, or 160 fmol/μg, then reduced with 10 mM dithiolthreitol for 30 minute at 80° C. and alkylated with 20 mM iodoacetamide for 30 minutes at room temperature. Next, the samples were supplemented with a final concentration of 1.2% phosphoric acid and 741 μL of S-Trap (Protifi) binding buffer (90% MeOH/100 mM […]). Proteins were trapped on the S-Trap, digested using 20 ng/μL sequencing grade trypsin (Promega) for 1 hour at 47° C., and eluted using 50 mM TEAB, followed by 0.2% FA, and lastly using 50% CAN/0.2% FA. All samples were then lyophilized to dryness and resuspended in 40 μL 1% TFA/2% acetonitrile containing 12.5 fmol/μL yeast alcohol dehydrogenase (ADH_YEAST). A QC Pool was created from 3 uL of each sample. All QC Pools were run periodically throughout the acquisition period.
Quantitative LC/MS/MS was performed on 2 μL of each sample, using a nanoAcquity UPLC system (Waters Corp) coupled to a Thermo Orbitrap Fusion Lumos high resolution accurate mass tandem mass spectrometer (Thermo) via a nanoelectrospray ionization source. Briefly, the sample was first trapped on a Symmetry C18 20 mm×180 μm trapping column (5 μL/min at 99.9/0.1 v/v water/acetonitrile), after which the analytical separation was performed using a 1.8 μm Acquity HSS T3 C18 75 μm×250 mm column (Waters Corp.) with a 90 minute linear gradient of 5% to 30% acetonitrile with 0.1% formic acid at a flow rate of 400 nanoliters/minute (nL/min) with a column temperature of 55° C. Data collection on the Fusion Lumos mass spectrometer was performed in a data-dependent acquisition (DDA) mode of acquisition with a r=120,000 (@ m/z 200) full MS scan from m/z 375-1500 with a target AGC value of 2e5 ions. MS/MS scans were acquired at Rapid scan rate (Ion Trap) with an AGC target of 5e3 ions and a max injection time of 100 ms. The total cycle time for MS and MS/MS scans was 2 seconds. A 20 second dynamic exclusion was employed to increase depth of coverage. The total analysis cycle time for each sample injection was approximately 2 hours.

With CC(C)c1nc(CN(C)C(=O)N[C@H](C(=O)N[C@@H](Cc2ccccc2)C[C@H](O)[C@H](Cc2ccccc2)NC(=O)OCc2cncs2)C(C)C)cs1 [RTV, Ritonavir] the “direction of modulated EV protein expression” value (DYT1 cells, 363 proteins of the DYT1 Genotype Dependent Differences subset) was “modulated expression in a therapeutic direction”, the “Abs Z Score Sum (Geno + RTV)” value (EV protein A2AVA0 Sushi, von Willebrand factor type A, EGF and pentraxin domain-containing protein 1) was 2.64 and the “Abs Z Score Sum (Geno + RTV)” value (EV protein Akr1b1 (P45376)) was 8.44. The “Abs Z Score Sum (Geno + RTV)” value (EV protein Aldh2 (P47738)) was 25.29, the “RTV Direction Opposite dE?” value (EV protein Aldh2 (P47738)) was “yes” and the “Abs Z Score Sum (Geno + RTV)” value (EV protein C1qtnf3 (Q9..)) was 6.95. The “Abs Z Score Sum (Geno + RTV)” value (EV protein Cnn3 (Q9DAW9)) was 13.28, the “RTV Direction Opposite dE?” value (EV protein Cnn3 (Q9DAW9)) was “yes” and the “Abs Z Score Sum (Geno + RTV)” value (EV protein Cnot1 (Q6ZQ08)) was 12.30. For the same molecule, the “RTV Direction Opposite dE?” value (EV protein Cnot1 (Q6ZQ08)) was “yes”, the “Abs Z Score Sum (Geno + RTV)” value (EV protein Col5A1 Q88207) was 5.55 and the “Abs Z Score Sum (Geno + RTV)” value (EV protein Coph2 Q55029) was 9.40. The “Abs Z Score Sum (Geno + RTV)” value (EV protein Cryab (P23927)) was 5.18, the “RTV Direction Opposite dE?” value (EV protein Cryab (P23927)) was “yes” and the “Abs Z Score Sum (Geno + RTV)” value (EV protein Cxadr (P97792)) was 16.73. For the same molecule, the “RTV Direction Opposite dE?” value (EV protein Cxadr (P97792)) was “yes”, the “RTV Direction Opposite dE?” value (EV protein D3YXG0) was “yes” and the “RTV Direction Opposite dE?” value (EV protein Dars (Q922B2)) was “yes”. The “RTV Direction Opposite dE?” value (EV protein Dctn2 (Q99KJ8)) was “yes”, the “Abs Z Score Sum (Geno + RTV)” value (EV protein Ddx3x (Q62167)) was 5.09 and the “Abs Z Score Sum (Geno + RTV)” value (EV protein Ddx5 (Q61656)) was 8.05. For the same molecule, the “Abs Z Score Sum (Geno + RTV)” value (EV protein Ddx39b (Q9Z1N5)) was 16.28, the “RTV Direction Opposite dE?” value (EV protein Ddx39b (Q9Z1N5)) was “yes” and the “Abs Z Score Sum (Geno + RTV)” value (EV protein Dhx9 (Q70133)) was 9.00. The “Abs Z Score Sum (Geno + RTV)” value (EV protein Dhx15 (Q35286)) was 7.27, the “Abs Z Score Sum (Geno + RTV)” value (EV protein Efemp1 Q8BPB5) was 8.34 and the “RTV Direction Opposite dE?” value (EV protein Esyt1 (Q3U7R1)) was “yes”. For the same molecule, the “Abs Z Score Sum (Geno + RTV)” value (EV protein Exoc4 (Q35382)) was 14.59, the “RTV Direction Opposite dE?” value (EV protein Exoc4 (Q35382)) was “yes” and the “Abs Z Score Sum (Geno + RTV)” value (EV protein Extended synaptotagmin-1 (Q3..)) was 4.61. For the same molecule, the “Abs Z Score Sum (Geno + RTV)” value (EV protein Fth1 P09528) was 12.58, the “Abs Z Score Sum (Geno + RTV)” value (EV protein Fus (P56959)) was 14.88 and the “RTV Direction Opposite dE?” value (EV protein Fus (P56959)) was “yes”. For the same molecule, the “Abs Z Score Sum (Geno + RTV)” value (EV protein Gsto1 (Q09131)) was 8.09, the “RTV Direction Opposite dE?” value (EV protein Gsto1 (Q09131)) was “yes” and the “Abs Z Score Sum (Geno + RTV)” value (EV protein Hmen1 D3YXG0) was 11.51. The “RTV Direction Opposite dE?” value (EV protein Hnrnpf (Q9Z2X1)) was “yes”, the “RTV Direction Opposite dE?” value (EV protein Hnrnph1 (Q35737)) was “yes” and the “Abs Z Score Sum (Geno + RTV)” value (EV protein Hnrnpl Q8R081) was 9.12. For the same molecule, the “Abs Z Score Sum (Geno + RTV)” value (EV protein Idh2 (P54071)) was 26.73, the “Abs Z Score Sum (Geno + RTV)” value (EV protein Igf1r Q60751) was 4.86 and the “RTV Direction Opposite dE?” value (EV protein Impa1 (Q55023)) was “yes”. The “Abs Z Score Sum (Geno + RTV)” value (EV protein Ipo7 (Q9EPL8)) was 5.25, the “RTV Direction Opposite dE?” value (EV protein Ipo7 (Q9EPL8)) was “yes” and the “Abs Z Score Sum (Geno + RTV)” value (EV protein Ipo11 (Q8K2V6)) was 13.53. For the same molecule, the “RTV Direction Opposite dE?” value (EV protein Ipo11 (Q8K2V6)) was “yes”, the “Abs Z Score Sum (Geno + RTV)” value (EV protein Itgb3 (Q54890)) was 4.87 and the “RTV Direction Opposite dE?” value (EV protein Itgb3 (Q54890)) was “yes”. The “Abs Z Score Sum (Geno + RTV)” value (EV protein Itm2b Q89051) was 17.16, the “Abs Z Score Sum (Geno + RTV)” value (EV protein Itpa (Q9D892)) was 23.68 and the “RTV Direction Opposite dE?” value (EV protein Itpa (Q9D892)) was “yes”. For the same molecule, the “Abs Z Score Sum (Geno + RTV)” value (EV protein Kpna4 (Q35343)) was 14.28, the “RTV Direction Opposite dE?” value (EV protein Kpna4 (Q35343)) was “yes” and the “Abs Z Score Sum (Geno + RTV)” value (EV protein Lipg (Q9WVG5)) was 11.27. For the same molecule, the “Abs Z Score Sum (Geno + RTV)” value (EV protein Mdk (P12025)) was 7.88, the “RTV Direction Opposite dE?” value (EV protein Mdk (P12025)) was “yes” and the “Abs Z Score Sum (Geno + RTV)” value (EV protein Mem2 P97310) was 7.66.
